Measurements published in PubChem BioAssay (NCI).
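Results reflect a 48-hour exposure of cells in 96-well plates to compound at five concentrations. At the TGI there is no net growth.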

tested on: HS 578T breast; assay: NCI-60 cell line screen, 48 h

| SMILES | TGI [µM] |
| --- | --- |
| Cc1ccc([N+](=O)[O-])c2c(NCCC[N+](C)(C)[O-])c3ccccc3nc12 | 21.7 |
| O=C(N/N=C\C=C\c1ccc([N+](=O)[O-])o1)C(=O)N/N=C\C=C\c1ccc([N+](=O)[O-])o1 | > 100 |
| CC1(C)OC(=O)N(c2ccccc2)C12C=Cc1cc([N+](=O)[O-])ccc1O2 (stereo not drawn) | > 100 |
| CSc1nnc(SC)nn1 | 77.1 |
| O=C1CC(c2cccc([N+](=O)[O-])c2)C2(C(=O)NC(=O)NC2=O)C(c2cccc([N+](=O)[O-])c2)C1 (stereo not drawn) | > 100 |
| CCOC(=O)Cc1nc2cc(F)c(F)cc2[nH]c1=O | > 100 |
| CC1(C)/C(=C/N=O)N(O)C(C)(C)N1O | > 100 |
| COCc1nc2c(OC)c(-c3nc4nc(N5CCN(C)CC5)ccc4[nH]3)cc(OC)c2n1C | > 100 |
| CCN1CCN(c2nc3ccccc3c3c2CCOc2ccccc2-3)CC1 | > 59.2 |
| N#Cc1c(-c2ccccc2)[nH]c2ccc(Cl)cc2c1=O | > 100 |
| O=C(NCP(=O)(c1ccccc1)c1ccccc1)OCc1ccccc1 | > 100 |
| O=c1cc(N2CCCC2)[nH]c(=O)n1-c1cccc(Cl)c1 | > 100 |
| CCOC(C)O[C@H]1C(=O)OCC1(C)C (stereo partly drawn) | > 100 |
| N#Cc1[nH]c(=O)n(-c2ccccc2)c1N | > 10 |
| O=C(NC(Cc1ccccc1)(Cc1ccc(O)cn1)C(=O)O)c1ccccc1 (stereo not drawn) | > 100 |
| COC(=O)c1cc2c(cc1CC(Cc1ccc3c(c1)CCCC3)C(=O)OC)CCCC2 (stereo not drawn) | > 100 |
| O=c1c2ccccc2nc(Cc2nc(-c3ccc(Cl)cc3)cs2)n1-c1ccc(Cl)cc1 | > 100 |
| NNC(=S)N/N=C(/C(=O)Nc1ccc(Cl)c(Cl)c1)C(C1OC(=O)c2ccccc21)[N+](=O)[O-] (stereo not drawn) | > 100 |

tested on: HOP-62 NSCLC; assay: NCI-60 cell line screen, 48 h

| SMILES | TGI [µM] |
| --- | --- |
| C(/C=C/Nc1ccc(Oc2ccccc2)cc1)=Nc1ccc(Oc2ccccc2)cc1 | 38 |
| Cc1ccc([N+](=O)[O-])c2c(NCCC[N+](C)(C)[O-])c3ccccc3nc12 | > 41.1 |
| O=C(N/N=C\C=C\c1ccc([N+](=O)[O-])o1)C(=O)N/N=C\C=C\c1ccc([N+](=O)[O-])o1 | > 100 |
| CC1(C)OC(=O)N(c2ccccc2)C12C=Cc1cc([N+](=O)[O-])ccc1O2 (stereo not drawn) | > 100 |
| CSc1nnc(SC)nn1 | 29.1 |
| O=C1CC(c2cccc([N+](=O)[O-])c2)C2(C(=O)NC(=O)NC2=O)C(c2cccc([N+](=O)[O-])c2)C1 (stereo not drawn) | > 100 |
| CCOC(=O)Cc1nc2cc(F)c(F)cc2[nH]c1=O | > 100 |
| CC1(C)/C(=C/N=O)N(O)C(C)(C)N1O | > 100 |
| COCc1nc2c(OC)c(-c3nc4nc(N5CCN(C)CC5)ccc4[nH]3)cc(OC)c2n1C | > 100 |
| CCN1CCN(c2nc3ccccc3c3c2CCOc2ccccc2-3)CC1 | > 100 |
| N#Cc1c(-c2ccccc2)[nH]c2ccc(Cl)cc2c1=O | 74 |
| O=C(NCP(=O)(c1ccccc1)c1ccccc1)OCc1ccccc1 | > 100 |
| O=c1cc(N2CCCC2)[nH]c(=O)n1-c1cccc(Cl)c1 | > 100 |
| CCOC(C)O[C@H]1C(=O)OCC1(C)C (stereo partly drawn) | > 100 |
| N#Cc1[nH]c(=O)n(-c2ccccc2)c1N | > 10 |
| O=C(NC(Cc1ccccc1)(Cc1ccc(O)cn1)C(=O)O)c1ccccc1 (stereo not drawn) | > 100 |
| COC(=O)c1cc2c(cc1CC(Cc1ccc3c(c1)CCCC3)C(=O)OC)CCCC2 (stereo not drawn) | > 100 |
| O=c1c2ccccc2nc(Cc2nc(-c3ccc(Cl)cc3)cs2)n1-c1ccc(Cl)cc1 | > 100 |
| NNC(=S)N/N=C(/C(=O)Nc1ccc(Cl)c(Cl)c1)C(C1OC(=O)c2ccccc21)[N+](=O)[O-] (stereo not drawn) | > 100 |

tested on: 786-0 renal; assay: NCI-60 cell line screen, 48 h

| SMILES | TGI [µM] |
| --- | --- |
| C(/C=C/Nc1ccc(Oc2ccccc2)cc1)=Nc1ccc(Oc2ccccc2)cc1 | 32.2 |
| Cc1ccc([N+](=O)[O-])c2c(NCCC[N+](C)(C)[O-])c3ccccc3nc12 | 6.72 |
| O=C(N/N=C\C=C\c1ccc([N+](=O)[O-])o1)C(=O)N/N=C\C=C\c1ccc([N+](=O)[O-])o1 | > 100 |
| CC1(C)OC(=O)N(c2ccccc2)C12C=Cc1cc([N+](=O)[O-])ccc1O2 (stereo not drawn) | > 100 |
| CSc1nnc(SC)nn1 | 27.1 |
| O=C1CC(c2cccc([N+](=O)[O-])c2)C2(C(=O)NC(=O)NC2=O)C(c2cccc([N+](=O)[O-])c2)C1 (stereo not drawn) | > 100 |
| CCOC(=O)Cc1nc2cc(F)c(F)cc2[nH]c1=O | > 100 |
| CC1(C)/C(=C/N=O)N(O)C(C)(C)N1O | > 100 |
| COCc1nc2c(OC)c(-c3nc4nc(N5CCN(C)CC5)ccc4[nH]3)cc(OC)c2n1C | > 100 |
| CCN1CCN(c2nc3ccccc3c3c2CCOc2ccccc2-3)CC1 | > 55.1 |
| N#Cc1c(-c2ccccc2)[nH]c2ccc(Cl)cc2c1=O | > 100 |
| O=C(NCP(=O)(c1ccccc1)c1ccccc1)OCc1ccccc1 | > 100 |
| O=c1cc(N2CCCC2)[nH]c(=O)n1-c1cccc(Cl)c1 | > 100 |
| CCOC(C)O[C@H]1C(=O)OCC1(C)C (stereo partly drawn) | > 100 |
| N#Cc1[nH]c(=O)n(-c2ccccc2)c1N | > 10 |
| O=C(NC(Cc1ccccc1)(Cc1ccc(O)cn1)C(=O)O)c1ccccc1 (stereo not drawn) | > 100 |
| COC(=O)c1cc2c(cc1CC(Cc1ccc3c(c1)CCCC3)C(=O)OC)CCCC2 (stereo not drawn) | > 100 |
| O=c1c2ccccc2nc(Cc2nc(-c3ccc(Cl)cc3)cs2)n1-c1ccc(Cl)cc1 | > 100 |
| NNC(=S)N/N=C(/C(=O)Nc1ccc(Cl)c(Cl)c1)C(C1OC(=O)c2ccccc21)[N+](=O)[O-] (stereo not drawn) | > 100 |

tested on: SK-OV-3 ovarian; assay: NCI-60 cell line screen, 48 h

| SMILES | TGI [µM] |
| --- | --- |
| Cc1ccc([N+](=O)[O-])c2c(NCCC[N+](C)(C)[O-])c3ccccc3nc12 | > 100 |
| O=C(N/N=C\C=C\c1ccc([N+](=O)[O-])o1)C(=O)N/N=C\C=C\c1ccc([N+](=O)[O-])o1 | > 100 |
| CC1(C)OC(=O)N(c2ccccc2)C12C=Cc1cc([N+](=O)[O-])ccc1O2 (stereo not drawn) | 66.4 |
| CSc1nnc(SC)nn1 | 49 |
| O=C1CC(c2cccc([N+](=O)[O-])c2)C2(C(=O)NC(=O)NC2=O)C(c2cccc([N+](=O)[O-])c2)C1 (stereo not drawn) | > 100 |
| CCOC(=O)Cc1nc2cc(F)c(F)cc2[nH]c1=O | > 100 |
| CC1(C)/C(=C/N=O)N(O)C(C)(C)N1O | > 100 |
| COCc1nc2c(OC)c(-c3nc4nc(N5CCN(C)CC5)ccc4[nH]3)cc(OC)c2n1C | > 100 |
| CCN1CCN(c2nc3ccccc3c3c2CCOc2ccccc2-3)CC1 | > 70.7 |
| N#Cc1c(-c2ccccc2)[nH]c2ccc(Cl)cc2c1=O | > 100 |
| O=C(NCP(=O)(c1ccccc1)c1ccccc1)OCc1ccccc1 | > 100 |
| O=c1cc(N2CCCC2)[nH]c(=O)n1-c1cccc(Cl)c1 | > 100 |
| CCOC(C)O[C@H]1C(=O)OCC1(C)C (stereo partly drawn) | > 100 |
| N#Cc1[nH]c(=O)n(-c2ccccc2)c1N | > 10 |
| O=C(NC(Cc1ccccc1)(Cc1ccc(O)cn1)C(=O)O)c1ccccc1 (stereo not drawn) | > 100 |
| COC(=O)c1cc2c(cc1CC(Cc1ccc3c(c1)CCCC3)C(=O)OC)CCCC2 (stereo not drawn) | > 100 |
| O=c1c2ccccc2nc(Cc2nc(-c3ccc(Cl)cc3)cs2)n1-c1ccc(Cl)cc1 | > 100 |
| NNC(=S)N/N=C(/C(=O)Nc1ccc(Cl)c(Cl)c1)C(C1OC(=O)c2ccccc21)[N+](=O)[O-] (stereo not drawn) | > 100 |

tested on: SK-MEL-28 melanoma; assay: NCI-60 cell line screen, 48 h

| SMILES | TGI [µM] |
| --- | --- |
| C(/C=C/Nc1ccc(Oc2ccccc2)cc1)=Nc1ccc(Oc2ccccc2)cc1 | 30.3 |
| Cc1ccc([N+](=O)[O-])c2c(NCCC[N+](C)(C)[O-])c3ccccc3nc12 | 17 |
| O=C(N/N=C\C=C\c1ccc([N+](=O)[O-])o1)C(=O)N/N=C\C=C\c1ccc([N+](=O)[O-])o1 | > 100 |
| CC1(C)OC(=O)N(c2ccccc2)C12C=Cc1cc([N+](=O)[O-])ccc1O2 (stereo not drawn) | > 100 |
| O=C1CC(c2cccc([N+](=O)[O-])c2)C2(C(=O)NC(=O)NC2=O)C(c2cccc([N+](=O)[O-])c2)C1 (stereo not drawn) | > 100 |
| CCOC(=O)Cc1nc2cc(F)c(F)cc2[nH]c1=O | > 100 |
| CC1(C)/C(=C/N=O)N(O)C(C)(C)N1O | > 100 |
| COCc1nc2c(OC)c(-c3nc4nc(N5CCN(C)CC5)ccc4[nH]3)cc(OC)c2n1C | 56 |
| CCN1CCN(c2nc3ccccc3c3c2CCOc2ccccc2-3)CC1 | 32.4 |
| N#Cc1c(-c2ccccc2)[nH]c2ccc(Cl)cc2c1=O | > 100 |
| O=C(NCP(=O)(c1ccccc1)c1ccccc1)OCc1ccccc1 | > 100 |
| CCOC(C)O[C@H]1C(=O)OCC1(C)C (stereo partly drawn) | > 100 |
| N#Cc1[nH]c(=O)n(-c2ccccc2)c1N | > 10 |
| O=C(NC(Cc1ccccc1)(Cc1ccc(O)cn1)C(=O)O)c1ccccc1 (stereo not drawn) | > 100 |
| COC(=O)c1cc2c(cc1CC(Cc1ccc3c(c1)CCCC3)C(=O)OC)CCCC2 (stereo not drawn) | > 100 |
| O=c1c2ccccc2nc(Cc2nc(-c3ccc(Cl)cc3)cs2)n1-c1ccc(Cl)cc1 | > 100 |
| NNC(=S)N/N=C(/C(=O)Nc1ccc(Cl)c(Cl)c1)C(C1OC(=O)c2ccccc21)[N+](=O)[O-] (stereo not drawn) | > 100 |

tested on: U251 CNS; assay: NCI-60 cell line screen, 48 h

| SMILES | TGI [µM] |
| --- | --- |
| C(/C=C/Nc1ccc(Oc2ccccc2)cc1)=Nc1ccc(Oc2ccccc2)cc1 | 33.2 |
| Cc1ccc([N+](=O)[O-])c2c(NCCC[N+](C)(C)[O-])c3ccccc3nc12 | 7.32 |
